For test [1], the system named is PC-3 prostate cancer cells. Nature of the test: MTT anti-cancer assay, PC-3 prostate cancer cells. The test is classed as cell-based, human. The settings on record: PC-3, 6 days. An excerpt:
(§1) The anti-cancer activity of the compounds of the invention herein have been tested in in vitro assays using a microculture assay with 3-(4,5-dimethylthiazol-2-yl)-2,5-diphenyltetrazolium bromide (“MTT”) a test well known to those skilled in the art. This assay has an advantage over in vivo assay in that results are obtained within a week as opposed to several months. The assay can be carried out in 96-well microtiter plates. The MTT assay is based on the production of a dark blue formazan product by dehydrogenase in the mitochondria of live tumor cells after exposure to drug for 6 days [M. C. […] Thus, only live cells are stained and can be measured at 595 nm. […]
(§2) Treatment: Before commencing drug treatment, cells were replenished with media containing 0.5% FCS. […] As an end point, the amount of surviving cells (Live cells) was measured using a standard […] assay (MTT based), and calculated as percentage of cells treated with vehicle (DMSO) alone (% control).
(§3) MTT assay: The assay is based on the cleavage of the yellow tetrazolium salt MTT to purple formazan crystals by dehydrogenase activity in active mitochondria. […] The formazan crystals formed are solubilized and the resulting colored solution is quantified using a scanning multiwell spectrophotometer. […]
A general note: Tetrazolium assays rely on reduction of a dye to a coloured formazan, in cell work by metabolically active cells.

Test [2] has as its system human cancer cell lines (A549, MDA-MB-468, PC-3, Bx-PC3). The experiment in a line: MTT anti-cancer assay, the other cancer cell lines of the panel. The test is classed as cell-based. The settings on record: cell lines other than PC-3 (A549, MDA-MB-468, Bx-PC3), compared to PC-3.
Text: as §1, §2, §3

In patent publication US7071218B2, “N-substituted heterocycles for the treatment of hypercholesteremia, dyslipidemia and other metabolic disorders; cancer, and other diseases” (Incyte San Diego Incorporated, priority 2001, dated 2006) one finds anticancer effect data, which are given here for one molecule.

Consider `COc1cccc(/C=C2\SC(=S)N(CC(=O)O)C2=O)c1-c1cc2c(cc1C)C(C)(C)CCC2(C)C` [Compound 9, {5-[3-Methoxy-2-(3,5,5,8,8-pentamethyl-5,6,7,8-tetrahydro-naphthalen-2-yl)-benzylidene]4-oxo-2-thioxo-thiazolidin-3-yl}-acetic acid], for which the anticancer effect entry was “very potent anticancer effect” in test [1] and “less pronounced” in test [2].
